Data from ChEMBL document CHEMBL1156104, “Synthesis and anticancer activity of novel amide derivatives of non-acetal deoxoartemisinin” (Bioorg Med Chem Lett, 2009).

Assays:
SK-OV-3 = assay: Anticancer activity against human SKOV3 cells by sulforhodamine B assay; format: functional, cell-based
XF498 = assay: Anticancer activity against human XF498 cells by sulforhodamine B assay; format: functional, cell-based
SK-MEL-2 = assay: Anticancer activity against human SK-MEL-2 cells by sulforhodamine B assay; format: functional, cell-based
A549 = assay: Anticancer activity against human A549 cells by sulforhodamine B assay; format: functional, cell-based
Mus musculus = species on record: Mus musculus; assay: Antiangiogenic activity in mouse assessed as inhibition of VEGF-induced angiogenesis at 10 uM by Matrigel plug assay; format: functional
HCT-15 = assay: Anticancer activity against human HCT15 cells by sulforhodamine B assay; format: functional, cell-based

| SMILES | IC50 (SK-OV-3) [µM] | IC50 (XF498) [µM] | IC50 (SK-MEL-2) [µM] | IC50 (A549) [µM] | inhibition (INH) (Mus musculus) [%] | IC50 (HCT-15) [µM] |
| --- | --- | --- | --- | --- | --- | --- |
| C[C@@H]1CC[C@H]2[C@H](CBr)CO[C@@H]3O[C@]4(C)CC[C@@H]1[C@]32OO4 | 15.4 | 16.4 | 14.2 | 11.2 | 95 | 11.2 |
| COC(=O)[C@@H](CS)N(Cc1ccccc1)C(=O)CC[C@H]1O[C@@H]2O[C@]3(C)CC[C@H]4[C@H](C)CCC([C@H]1C)[C@@]24OO3 (stereo not given in full) | 2.35 | 2.66 | 3.15 | 3.12 | – | 1.54 |
| C[C@@H]1CCC2[C@@H](C)[C@@H](CCC(=O)N3CCC(Cc4ccccc4)CC3)O[C@@H]3O[C@]4(C)CC[C@@H]1[C@@]23OO4 (stereo not given in full) | 1.65 | 1.95 | 1.25 | 1.35 | – | 1.45 |
| C[C@@H]1CCC2[C@@H](C)[C@@H](CCNC(=O)CC[C@H](NC(=O)CC[C@H]3O[C@@H]4O[C@]5(C)CC[C@H]6[C@H](C)CCC([C@H]3C)[C@@]46OO5)C(=O)NCC[C@H]3O[C@@H]4O[C@]5(C)CC[C@H]6[C@H](C)CCC([C@H]3C)[C@@]46OO5)O[C@@H]3O[C@]4(C)CC[C@@H]1[C@@]23OO4 (stereo not given in full) | 12.4 | 11.6 | 18.2 | 13.5 | 80 | 19.8 |
| C[C@@H]1CCC2[C@@H](C)[C@@H](CCNC(=O)CC[C@H]3O[C@@H]4O[C@]5(C)CC[C@H]6[C@H](C)CCC([C@H]3C)[C@@]46OO5)O[C@@H]3O[C@]4(C)CC[C@@H]1[C@@]23OO4 (stereo not given in full) | 4.36 | 5.76 | 9.94 | 7.63 | – | 7.83 |
| C[C@H]1[C@@H](CCSCC[C@H]2O[C@@H]3O[C@]4(C)CC[C@H]5[C@H](C)CCC([C@H]2C)[C@@]35OO4)O[C@@H]2O[C@]3(C)CCC4[C@H](C)CC[C@@H]1[C@]42OO3 (stereo not given in full) | 4.86 | 5.44 | 7.56 | 5.63 | – | 3.53 |
| C[C@@H]1CCC2[C@@H](C)[C@@H](CCC(=O)NCCCN3CCN(CCCNC(=O)CC[C@H]4O[C@@H]5O[C@]6(C)CC[C@H]7[C@H](C)CCC([C@H]4C)[C@@]57OO6)CC3)O[C@@H]3O[C@]4(C)CC[C@@H]1[C@@]23OO4 (stereo not given in full) | 0.63 | 0.46 | 0.45 | 0.85 | – | 0.84 |
| C[C@@H]1CCC2[C@@H](C)[C@@H](CCC(=O)NCc3ccccc3)O[C@@H]3O[C@]4(C)CC[C@@H]1[C@@]23OO4 (stereo not given in full) | 4.75 | 3.46 | 8.36 | 5.13 | – | 6.22 |
| CO[C@H]1O[C@@H]2O[C@@]3(C)CC[C@H]4[C@H](C)CC[C@@H]([C@H]1C)[C@@]24OO3 [ARTEMETHER] | 8.03 | 9.1 | 7.24 | 8.54 | – | 9.66 |
| C[C@@H]1CC[C@H]2[C@@H](C)C(=O)O[C@@H]3O[C@@]4(C)CC[C@@H]1[C@]32OO4 [ARTEMISININ] | 14.3 | 16.2 | 12.9 | 15.2 | – | 17.2 |
| C[C@H]1[C@@H](O)O[C@@H]2O[C@@]3(C)CC[C@H]4[C@H](C)CC[C@@H]1[C@@]24OO3 [ARTENIMOL] | 0.85 | 0.54 | 0.75 | 0.63 | – | 0.46 |
| COc1cccc2c1C(=O)c1c(O)c3c(c(O)c1C2=O)C[C@@](O)(C(=O)CO)C[C@@H]3O[C@H]1C[C@H](N)[C@H](O)[C@H](C)O1 [DOXORUBICIN] | 0.046 | – | 0.028 | 0.075 | – | – |
